Key:
Assay type in all cases: cell-based, HEK293
[1] = target: Sodium-dependent noradrenaline transporter (Homo sapiens, UniProt P23975); assay: Inhibition of norepinephrine uptake at human NET expressed in HEK cells
[2] = target: Sodium-dependent serotonin transporter (Homo sapiens, UniProt P31645);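 further: test system: HEK cells expressing the human transporter, read-out is block of serotonin uptake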
[3] = target: Sodium-dependent dopamine transporter (Homo sapiens, UniProt Q01959); assay: Inhibition of dopamine uptake at human DAT expressed in HEK cells
Sodium-dependent dopamine transporter, sequence (Q01959 whole entry): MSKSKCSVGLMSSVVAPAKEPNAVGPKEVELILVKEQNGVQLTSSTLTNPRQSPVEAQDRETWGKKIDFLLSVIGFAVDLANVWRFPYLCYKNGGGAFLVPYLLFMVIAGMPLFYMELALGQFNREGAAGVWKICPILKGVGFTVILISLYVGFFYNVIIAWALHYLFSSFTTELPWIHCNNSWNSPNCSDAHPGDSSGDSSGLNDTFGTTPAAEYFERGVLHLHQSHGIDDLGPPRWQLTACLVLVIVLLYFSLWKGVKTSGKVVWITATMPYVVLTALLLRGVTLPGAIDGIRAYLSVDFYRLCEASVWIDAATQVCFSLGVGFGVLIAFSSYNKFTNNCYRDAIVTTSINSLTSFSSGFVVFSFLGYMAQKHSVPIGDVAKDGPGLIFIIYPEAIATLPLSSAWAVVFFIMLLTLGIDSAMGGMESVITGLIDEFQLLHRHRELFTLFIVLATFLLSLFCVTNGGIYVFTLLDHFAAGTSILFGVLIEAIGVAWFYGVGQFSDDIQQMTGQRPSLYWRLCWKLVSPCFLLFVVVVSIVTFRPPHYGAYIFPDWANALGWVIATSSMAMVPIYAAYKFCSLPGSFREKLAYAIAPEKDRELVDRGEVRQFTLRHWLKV

Sodium-dependent serotonin transporter, sequence (P31645 whole entry): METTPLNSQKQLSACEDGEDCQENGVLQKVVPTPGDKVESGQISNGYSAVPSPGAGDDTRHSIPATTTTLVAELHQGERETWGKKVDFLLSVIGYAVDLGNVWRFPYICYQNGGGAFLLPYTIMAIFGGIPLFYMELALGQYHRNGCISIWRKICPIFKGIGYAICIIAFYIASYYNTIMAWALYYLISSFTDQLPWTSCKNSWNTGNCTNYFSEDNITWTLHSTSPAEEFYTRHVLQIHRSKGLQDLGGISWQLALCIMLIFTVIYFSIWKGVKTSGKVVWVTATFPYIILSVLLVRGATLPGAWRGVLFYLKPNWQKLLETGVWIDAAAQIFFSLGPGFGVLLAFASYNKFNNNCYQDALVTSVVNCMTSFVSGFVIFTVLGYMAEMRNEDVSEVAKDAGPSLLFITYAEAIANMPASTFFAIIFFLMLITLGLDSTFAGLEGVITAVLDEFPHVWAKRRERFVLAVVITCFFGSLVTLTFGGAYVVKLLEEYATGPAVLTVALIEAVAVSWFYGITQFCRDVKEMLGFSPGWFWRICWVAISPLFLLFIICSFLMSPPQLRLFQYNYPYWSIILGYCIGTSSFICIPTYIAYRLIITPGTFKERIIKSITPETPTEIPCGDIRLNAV
Sodium-dependent noradrenaline transporter, sequence (P23975 whole entry): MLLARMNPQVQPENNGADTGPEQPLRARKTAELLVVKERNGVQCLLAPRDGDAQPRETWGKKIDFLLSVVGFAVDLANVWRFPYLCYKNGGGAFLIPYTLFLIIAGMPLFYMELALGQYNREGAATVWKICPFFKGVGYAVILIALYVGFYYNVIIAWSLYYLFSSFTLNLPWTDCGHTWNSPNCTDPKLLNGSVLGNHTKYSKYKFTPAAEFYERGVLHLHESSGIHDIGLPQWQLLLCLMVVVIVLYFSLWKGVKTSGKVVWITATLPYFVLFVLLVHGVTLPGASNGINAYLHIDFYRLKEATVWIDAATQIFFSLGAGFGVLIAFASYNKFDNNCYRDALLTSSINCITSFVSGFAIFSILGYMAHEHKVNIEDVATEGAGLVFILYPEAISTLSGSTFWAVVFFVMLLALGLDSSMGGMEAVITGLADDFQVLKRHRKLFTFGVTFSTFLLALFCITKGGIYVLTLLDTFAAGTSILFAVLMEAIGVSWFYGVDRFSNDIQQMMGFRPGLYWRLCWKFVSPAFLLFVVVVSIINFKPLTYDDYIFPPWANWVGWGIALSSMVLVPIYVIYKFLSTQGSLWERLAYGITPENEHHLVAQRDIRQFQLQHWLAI

Row | IC50 [1] | IC50 [2] | IC50 [3] | Structure (SMILES)
1 | 4500 nM | 230 nM | > 10000 nM | CN(C)C[C@@H]1Cc2ccccc2[C@@H]1Oc1ccc(C(F)(F)F)cc1
2 | 36 nM | 3000 nM | > 10000 nM | CCc1ccccc1O[C@H]1c2ccccc2CO[C@@H]1CNC
3 | 13 nM | 150 nM | > 10000 nM | CNC[C@@H]1OCc2ccccc2[C@@H]1Oc1ccc(F)cc1C
4 | 11 nM | 4000 nM | > 10000 nM | CNC[C@@H]1OCc2ccccc2[C@@H]1Oc1cc(F)ccc1C
5 | 480 nM | > 10000 nM | > 10000 nM | CNC[C@H]1OCc2ccccc2[C@@H]1Oc1ccccc1OC
6 | 35 nM | 1500 nM | > 10000 nM | CNC[C@H]1Cc2ccccc2[C@@H]1Oc1ccccc1C
7 | 8 nM | 1400 nM | > 10000 nM | CCc1cccc(F)c1O[C@H]1c2ccccc2CO[C@H]1CNC
8 | 30 nM | 140 nM | 5700 nM | CNC[C@@H]1Cc2ccccc2[C@@H]1Oc1cccc2ccccc12
9 | 240 nM | > 10000 nM | > 10000 nM | CCOc1ccccc1O[C@H]1c2ccccc2CO[C@@H]1CNC
10 | 14 nM | 6000 nM | > 10000 nM | CNC[C@@H]1OCc2ccccc2[C@@H]1Oc1ccccc1SC
11 | 15 nM | 4500 nM | > 10000 nM | CCc1ccccc1O[C@H]1c2ccccc2CO[C@H]1CNC
12 | 5000 nM | 6500 nM | > 10000 nM | Cc1ccccc1O[C@H]1c2ccccc2C[C@H]1CN(C)C
13 | 75 nM | 3100 nM | > 10000 nM | CNC[C@@H]1OCc2ccccc2[C@@H]1Oc1ccccc1F
14 | 9 nM | 100 nM | 1400 nM | CNC[C@@H]1OCc2ccccc2[C@@H]1Oc1cccc(Cl)c1C
15 | 140 nM | 2700 nM | > 10000 nM | CNC[C@@H]1SCc2ccccc2[C@@H]1Oc1ccccc1Cl
16 | 10 nM | 1600 nM | 5300 nM | CNC[C@@H]1Cc2ccccc2[C@@H]1Oc1ccccc1C
17 | 430 nM | 3100 nM | 7500 nM | CNC[C@H]1CSc2ccccc2[C@@H]1Oc1ccccc1C
18 | 45 nM | 640 nM | 4000 nM | CNC[C@H]1OCc2ccccc2[C@@H]1Oc1ccccc1SC
19 | 400 nM | 90 nM | 4000 nM | CNC[C@H]1Cc2ccccc2[C@@H]1Oc1cccc2ccccc12
20 | 700 nM | 1100 nM | > 10000 nM | Cc1ccccc1O[C@H]1c2ccccc2OC[C@H]1CN(C)C
21 | 880 nM | 190 nM | > 10000 nM | CNC[C@@H]1Cc2ccccc2[C@@H]1Oc1ccc(C(F)(F)F)cc1
22 | 8000 nM | 10000 nM | > 10000 nM | CNC[C@H]1CS(=O)(=O)c2ccccc2[C@@H]1Oc1ccccc1C
23 | 145 nM | 3600 nM | > 10000 nM | CNC[C@@H]1CSc2ccccc2[C@@H]1Oc1ccccc1Cl
